Reference: ChEMBL document CHEMBL5291721, “A preclinical secondary pharmacology resource illuminates target-adverse drug reaction associations of marketed drugs” (Nat Commun, 2023)

Key:
[1] = target: D(1A) dopamine receptor (Homo sapiens, UniProt P21728)
[2] = target: T1, Alpha-1A adrenergic receptor (Homo sapiens, UniProt P35348); assay type: functional, cell-based
T1 sequence (P35348 whole entry): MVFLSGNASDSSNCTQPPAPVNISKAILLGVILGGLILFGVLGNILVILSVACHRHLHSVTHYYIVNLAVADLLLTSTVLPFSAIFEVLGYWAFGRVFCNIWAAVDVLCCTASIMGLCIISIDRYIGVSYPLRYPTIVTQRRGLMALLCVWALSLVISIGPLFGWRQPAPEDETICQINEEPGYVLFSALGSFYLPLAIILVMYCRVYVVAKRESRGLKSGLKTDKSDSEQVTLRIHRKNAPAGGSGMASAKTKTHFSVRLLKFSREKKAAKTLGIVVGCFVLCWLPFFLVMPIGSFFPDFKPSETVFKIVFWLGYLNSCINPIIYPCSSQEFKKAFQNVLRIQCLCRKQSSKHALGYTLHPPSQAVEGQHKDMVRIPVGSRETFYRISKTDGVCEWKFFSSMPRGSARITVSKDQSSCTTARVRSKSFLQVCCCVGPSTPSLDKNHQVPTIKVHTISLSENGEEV

[3] = target: T2, Amine oxidase [flavin-containing] A (Homo sapiens, UniProt P21397); assay type: functional
T2 sequence (P21397 whole entry): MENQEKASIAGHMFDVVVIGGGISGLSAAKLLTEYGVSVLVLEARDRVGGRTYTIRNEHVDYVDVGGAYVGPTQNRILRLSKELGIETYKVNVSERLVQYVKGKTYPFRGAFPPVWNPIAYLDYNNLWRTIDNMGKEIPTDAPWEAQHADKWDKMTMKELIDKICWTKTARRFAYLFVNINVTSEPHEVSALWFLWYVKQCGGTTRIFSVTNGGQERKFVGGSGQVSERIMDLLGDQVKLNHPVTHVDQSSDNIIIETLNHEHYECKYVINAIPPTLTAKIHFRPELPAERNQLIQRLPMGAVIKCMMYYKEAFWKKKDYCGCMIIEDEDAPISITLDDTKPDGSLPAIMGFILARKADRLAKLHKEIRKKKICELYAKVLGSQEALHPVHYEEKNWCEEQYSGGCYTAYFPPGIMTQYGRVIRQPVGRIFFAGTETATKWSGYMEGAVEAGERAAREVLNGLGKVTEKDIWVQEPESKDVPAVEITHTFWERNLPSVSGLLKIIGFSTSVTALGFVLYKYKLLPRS

[4] = target: T3, Progesterone receptor (Homo sapiens, UniProt P06401)
T3 sequence (P06401 whole entry): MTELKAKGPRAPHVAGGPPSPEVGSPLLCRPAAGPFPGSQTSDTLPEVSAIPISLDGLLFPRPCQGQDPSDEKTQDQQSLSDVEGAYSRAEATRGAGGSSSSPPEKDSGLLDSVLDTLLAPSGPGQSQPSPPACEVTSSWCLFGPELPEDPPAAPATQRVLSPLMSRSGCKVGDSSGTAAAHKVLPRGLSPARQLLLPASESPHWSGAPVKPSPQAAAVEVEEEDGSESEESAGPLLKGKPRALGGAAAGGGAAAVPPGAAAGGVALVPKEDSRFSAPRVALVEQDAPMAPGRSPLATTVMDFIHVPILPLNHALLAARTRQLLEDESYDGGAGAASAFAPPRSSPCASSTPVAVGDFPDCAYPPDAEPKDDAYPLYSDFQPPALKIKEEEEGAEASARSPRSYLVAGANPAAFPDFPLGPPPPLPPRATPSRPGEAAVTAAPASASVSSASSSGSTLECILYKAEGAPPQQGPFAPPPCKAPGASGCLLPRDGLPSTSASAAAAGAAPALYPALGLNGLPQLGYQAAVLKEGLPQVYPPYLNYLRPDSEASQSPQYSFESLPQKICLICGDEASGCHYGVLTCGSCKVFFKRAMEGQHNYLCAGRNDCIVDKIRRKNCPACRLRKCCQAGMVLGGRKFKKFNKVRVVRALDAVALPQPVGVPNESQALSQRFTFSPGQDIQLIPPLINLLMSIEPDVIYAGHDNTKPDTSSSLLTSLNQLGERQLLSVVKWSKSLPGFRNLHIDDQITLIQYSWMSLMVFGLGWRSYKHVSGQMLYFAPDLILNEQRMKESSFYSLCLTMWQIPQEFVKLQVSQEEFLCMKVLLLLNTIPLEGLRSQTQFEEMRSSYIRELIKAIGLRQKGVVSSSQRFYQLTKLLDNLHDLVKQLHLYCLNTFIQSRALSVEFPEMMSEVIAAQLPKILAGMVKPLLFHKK

[5] = target: Sodium-dependent dopamine transporter (Homo sapiens, UniProt Q01959)
Chain of Sodium-dependent dopamine transporter (Q01959 whole entry): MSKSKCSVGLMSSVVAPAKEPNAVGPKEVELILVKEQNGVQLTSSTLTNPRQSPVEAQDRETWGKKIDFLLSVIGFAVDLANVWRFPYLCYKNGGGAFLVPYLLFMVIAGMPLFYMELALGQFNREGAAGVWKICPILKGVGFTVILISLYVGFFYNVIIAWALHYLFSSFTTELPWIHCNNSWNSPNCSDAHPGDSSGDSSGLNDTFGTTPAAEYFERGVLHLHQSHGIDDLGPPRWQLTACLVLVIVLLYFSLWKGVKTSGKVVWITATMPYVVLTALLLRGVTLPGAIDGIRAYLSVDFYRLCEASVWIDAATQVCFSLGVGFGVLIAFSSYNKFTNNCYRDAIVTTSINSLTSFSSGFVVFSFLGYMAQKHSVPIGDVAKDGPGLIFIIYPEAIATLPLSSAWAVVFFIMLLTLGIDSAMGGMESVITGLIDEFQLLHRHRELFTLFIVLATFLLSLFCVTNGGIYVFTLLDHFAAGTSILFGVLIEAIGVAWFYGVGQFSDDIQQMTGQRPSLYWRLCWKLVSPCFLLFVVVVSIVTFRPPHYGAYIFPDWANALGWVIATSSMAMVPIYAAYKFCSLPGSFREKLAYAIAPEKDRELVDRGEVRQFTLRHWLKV

[6] = target: Prothrombin (Homo sapiens, UniProt P00734); assay type: functional
[7] = target: T4, Estrogen receptor (Homo sapiens, UniProt P03372)
T4 sequence (P03372 whole entry): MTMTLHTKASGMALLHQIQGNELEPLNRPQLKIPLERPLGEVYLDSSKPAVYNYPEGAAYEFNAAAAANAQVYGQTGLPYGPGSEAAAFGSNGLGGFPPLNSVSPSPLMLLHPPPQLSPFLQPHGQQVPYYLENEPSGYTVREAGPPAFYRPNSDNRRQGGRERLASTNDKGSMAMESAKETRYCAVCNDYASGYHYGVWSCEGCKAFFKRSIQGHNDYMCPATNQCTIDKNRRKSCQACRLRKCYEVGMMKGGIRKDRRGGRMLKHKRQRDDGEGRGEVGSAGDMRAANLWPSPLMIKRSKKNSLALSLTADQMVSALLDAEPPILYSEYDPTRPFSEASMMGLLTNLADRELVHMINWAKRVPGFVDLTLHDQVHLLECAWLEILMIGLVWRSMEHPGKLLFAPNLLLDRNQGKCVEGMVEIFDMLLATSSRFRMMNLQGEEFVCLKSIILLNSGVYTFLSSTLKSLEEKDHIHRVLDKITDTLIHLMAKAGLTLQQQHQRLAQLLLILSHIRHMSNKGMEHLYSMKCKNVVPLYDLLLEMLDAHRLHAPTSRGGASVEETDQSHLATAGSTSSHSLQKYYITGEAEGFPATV
Note: assay procedure not described here.

Chain of D(1A) dopamine receptor (P21728 whole entry): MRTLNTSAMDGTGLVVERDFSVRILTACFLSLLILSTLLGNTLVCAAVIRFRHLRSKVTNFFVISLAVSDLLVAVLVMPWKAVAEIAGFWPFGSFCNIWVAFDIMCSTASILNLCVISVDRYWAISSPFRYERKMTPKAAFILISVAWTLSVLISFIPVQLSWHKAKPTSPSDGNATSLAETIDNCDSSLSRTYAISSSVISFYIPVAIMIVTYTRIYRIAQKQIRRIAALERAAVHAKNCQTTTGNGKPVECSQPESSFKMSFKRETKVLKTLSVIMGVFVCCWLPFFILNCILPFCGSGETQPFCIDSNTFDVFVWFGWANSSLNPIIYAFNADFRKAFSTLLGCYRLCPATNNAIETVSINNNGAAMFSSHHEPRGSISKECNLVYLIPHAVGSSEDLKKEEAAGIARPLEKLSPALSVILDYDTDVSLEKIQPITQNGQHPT

Row | Compound | AC50 [1] [µM] | AC50 [2] [µM] | AC50 [3] [µM] | AC50 [4] [µM] | AC50 [5] [µM] | AC50 [6] [µM] | AC50 [7] [µM]
1 | CCN(CC)CCc1nc(-c2ccccc2)no1 [OXOLAMINE] | > 30 | > 30 | > 30 | > 30 | > 30 | > 30 | > 30
2 | C=CCN1C[C@H](C(=O)N(CCCN(C)C)C(=O)NCC)C[C@@H]2c3cccc4[nH]cc(c34)C[C@H]21 [CABERGOLINE] | 0.648 | 0.142 | > 30 | > 30 | 4.64 | > 30 | > 30
3 | Clc1ccc(C(OCCN2CCCCC2)c2ccccc2)cc1 (stereo unspecified) [CLOPERASTINE] | 5.96 | > 30 | > 30 | > 30 | 1.09 | > 30 | > 30
4 | CC(C)(C)C(=O)OCOC(=O)[C@@H]1N2C(=O)[C@@H](NC(=O)[C@H](N)c3ccccc3)[C@H]2SC1(C)C [PIVAMPICILLIN] | > 30 | > 30 | > 30 | > 30 | > 30 | > 30 | > 30
5 | CCOc1ccccc1OCC1CNCCO1 (stereo unspecified) [VILOXAZINE] | > 30 | > 30 | > 30 | > 30 | > 30 | > 30 | > 30
6 | COc1ccc(C(=O)Nc2ccccc2CCC2CCCCN2C)cc1 (stereo unspecified) [ENCAINIDE] | 26.9 | > 30 | > 30 | > 30 | > 30 | > 30 | > 30
7 | CC(C)(C)N1CCC(c2ccccc2)(c2ccccc2)CC1 [BUDIPINE] | > 30 | > 30 | > 30 | > 30 | > 30 | > 30 | > 30
8 | CC(=O)OCC(=O)[C@@]1(O)CC[C@H]2[C@@H]3CCC4=CC(=O)C=C[C@]4(C)[C@@]3(Cl)[C@@H](Cl)C[C@@]21C [DICHLORISONE ACETATE] | > 30 | > 30 | > 30 | 0.173 | > 30 | > 30 | > 30
9 | OB1OCc2cc(F)ccc21 [TAVABOROLE] | > 30 | > 30 | > 30 | > 30 | > 30 | > 30 | > 30
10 | Nc1ccc(S(=O)(=O)c2cnc(N)s2)cc1 [THIAZOLSULFONE] | > 30 | > 30 | > 30 | > 30 | 24.3 | > 30 | > 30
11 | CCN(CC)CCOC(=O)C(c1ccccc1)C1CCCCC1 (stereo unspecified) [DROFENINE] | 13.7 | > 30 | > 30 | > 30 | 0.219 | > 30 | > 30
12 | CCN(CC)CCNc1ccc(CO)c2sc3ccccc3c(=O)c12 [HYCANTHONE] | > 30 | > 30 | > 30 | > 30 | 12.5 | > 30 | > 30
13 | CC[C@@H](C(N)=O)N1CCCC1=O | > 30 | > 30 | > 30 | > 30 | > 30 | > 30 | > 30
14 | N=C1CCCN1Cc1[nH]c(=O)[nH]c(=O)c1Cl | > 30 | > 30 | > 30 | > 30 | > 30 | > 30 | > 30
15 | O=C(Nc1ccc(Cl)cc1)Nc1ccc(Cl)c(Cl)c1 [TRICLOCARBAN] | > 30 | > 30 | > 30 | > 30 | > 10 | > 30 | > 30
16 | CC1=C(/C=C/C(C)=C/C=C/C(C)=C/C=C/C=C(C)/C=C/C=C(C)/C=C/C2=C(C)CCCC2(C)C)C(C)(C)CCC1 [BETA CAROTENE] | > 30 | > 30 | > 30 | > 30 | > 30 | > 30 | > 30
17 | CCOc1ccc(Cc2cc([C@@H]3O[C@H](CO)[C@@H](O)[C@H](O)[C@H]3O)ccc2Cl)cc1 [DAPAGLIFLOZIN] | > 30 | > 30 | > 30 | > 30 | > 30 | > 30 | > 30
18 | Nc1nc2nc[nH]c2c(=S)[nH]1 [THIOGUANINE] | > 30 | > 30 | > 30 | > 30 | > 30 | > 30 | > 30
19 | C[N+]1(CCCCC[N+]2(C)CCCC2)CCCC1 [PENTOLINIUM] | > 30 | > 30 | > 30 | > 30 | > 30 | > 30 | > 30
20 | CCCCS(=O)(=O)N[C@@H](Cc1ccc(OCCCCC2CCNCC2)cc1)C(=O)O [TIROFIBAN] | > 30 | > 30 | > 30 | > 30 | > 30 | > 30 | > 30
21 | CC(CNC(=O)c1ccccc1)C(=O)OCC(=O)[C@@]12OC(C)(C)O[C@@H]1C[C@H]1[C@@H]3CCC4=CC(=O)C=C[C@]4(C)[C@@]3(F)[C@@H](O)C[C@@]12C (stereo partly specified) [TRIAMCINOLONE BENETONIDE] | > 30 | > 30 | > 30 | > 30 | > 30 | > 30 | > 30
22 | CC(C)(C)CC(C)(C)c1ccc(O)c(Cc2ccc(Cl)cc2Cl)c1 [CLOFOCTOL] | 29.7 | > 30 | > 30 | 1.15 | 3.54 | > 30 | 8.45
23 | CC(C)(C)NCC(O)COc1cccc2c1SCCC2 (stereo unspecified) [TERTATOLOL] | > 30 | > 30 | > 30 | > 30 | > 30 | > 30 | > 30
